Results as given in BindingDB's records for doi:10.3109/14756366.2012.740477 (Solapur University, 2013).

Each compound was assayed against Urease (Canavalia ensiformis, UniProt P07374) (assay: Urease Inhibition Assay). Conditions: pH 6.8; 30 °C.
Method: Mixture of 25 μL of urease enzyme (Jack bean) solution containing 1 unit of enzyme (1 unit = 0.02 mg of enzyme) was dissolved in phosphate buffer of pH 6.8, 55 μL of buffer containing 100 mM urea, and 5 μL of test compounds (0.5 mM concentration) was incubated at 30°C for 15 min in 96-well plates. Urease activity was determined by measuring ammonia production using the iodophenol method38. Briefly, 45 μL each of phenol reagent and 70 μL of alkali reagent were added to each well. The increase in absorbance at 630 nm was measured after 50 min, using a microplate reader (Molecular Device, CA, USA). All reactions were performed in triplicate in a final volume of 200 μL. The results (change in absorbance per min) were processed using Soft-Max Pro software (Molecular Device, CA, USA).

Chain of Urease (P07374 whole entry): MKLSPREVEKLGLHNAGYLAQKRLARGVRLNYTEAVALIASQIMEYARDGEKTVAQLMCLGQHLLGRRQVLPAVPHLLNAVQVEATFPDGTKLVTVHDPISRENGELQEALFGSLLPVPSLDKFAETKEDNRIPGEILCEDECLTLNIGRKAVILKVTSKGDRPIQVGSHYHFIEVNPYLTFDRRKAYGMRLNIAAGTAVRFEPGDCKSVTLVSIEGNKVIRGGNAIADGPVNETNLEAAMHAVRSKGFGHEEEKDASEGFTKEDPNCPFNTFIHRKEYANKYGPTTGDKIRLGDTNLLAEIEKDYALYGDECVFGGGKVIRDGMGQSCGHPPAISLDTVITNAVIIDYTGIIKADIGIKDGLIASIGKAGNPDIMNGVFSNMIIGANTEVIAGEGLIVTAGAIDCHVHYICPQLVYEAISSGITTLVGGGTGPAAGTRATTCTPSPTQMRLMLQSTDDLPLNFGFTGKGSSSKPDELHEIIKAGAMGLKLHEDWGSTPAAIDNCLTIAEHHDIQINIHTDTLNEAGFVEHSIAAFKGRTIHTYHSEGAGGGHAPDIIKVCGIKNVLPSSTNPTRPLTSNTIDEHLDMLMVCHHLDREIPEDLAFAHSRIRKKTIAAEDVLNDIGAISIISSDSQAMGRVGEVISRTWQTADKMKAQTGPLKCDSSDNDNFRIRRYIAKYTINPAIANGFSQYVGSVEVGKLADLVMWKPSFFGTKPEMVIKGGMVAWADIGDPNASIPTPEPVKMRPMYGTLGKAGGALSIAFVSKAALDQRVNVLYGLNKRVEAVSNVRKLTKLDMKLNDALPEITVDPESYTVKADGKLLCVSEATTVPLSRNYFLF

| SMILES | IC50 |
| --- | --- |
| Cn1c2ccccc2c2cc(-c3cc(-c4cccc(N)c4)nc(N)n3)ccc21 [4-(3-Aminophenyl)-6-(9-methyl-9H-carbazol-3-yl)-pyrimidin-2-amine (5p)] | 83.7 µM |
| Cn1c2ccccc2c2cc(-c3cc(-c4ccc(Br)cc4)nc(N)n3)ccc21 [4-(4-Bromophenyl)-6-(9-methyl-9H-carbazol-3-yl)-pyrimidin-2-amine (5l)] | 95.1 µM |
| Cn1c2ccccc2c2cc(-c3cc(-c4ccc(F)cc4F)nc(N)n3)ccc21 [4-(2,4-Difluorophenyl)-6-(9-methyl-9H-carbazol-3-yl)-pyrimidin-2-amine (5f)] | 40.2 µM |
| Cn1c2ccccc2c2cc(-c3cc(-c4ccc(Cl)cc4Cl)nc(N)n3)ccc21 [4-(2,4-Dichlorophenyl)-6-(9-methyl-9H-carbazol-3-yl)-pyrimidin-2-amine (5i)] | 19.4 µM |
| Cn1c2ccccc2c2cc(-c3cc(-c4ccc(F)c(F)c4)nc(N)n3)ccc21 [4-(3,4-Difluorophenyl)-6-(9-methyl-9H-carbazol-3-yl)-pyrimidin-2-amine (5g)] | 45.2 µM |
| Cn1c2ccccc2c2cc(-c3cc(-c4ccc(Cl)cc4)nc(N)n3)ccc21 [4-(4-Chlorophenyl)-6-(9-methyl-9H-carbazol-3-yl)-pyrimidin-2-amine (5h)] | > 100 µM |
| COc1ccc(-c2cc(-c3ccc4c(c3)c3ccccc3n4C)nc(N)n2)cc1 [4-(4-Methoxyphenyl)-6-(9-methyl-9H-carbazol-3-yl)-pyrimidin-2-amine (5b)] | 95.4 µM |
| Cn1c2ccccc2c2cc(-c3cc(-c4ccccc4)nc(N)n3)ccc21 [4-(9-Methyl-9H-carbazol-3-yl)-6-phenylpyrimidin-2-amine (5a)] | > 100 µM |
| Cn1c2ccccc2c2cc(-c3cc(-c4cc(Cl)ccc4Cl)nc(N)n3)ccc21 [4-(2,5-Dichlorophenyl)-6-(9-methyl-9H-carbazol-3-yl)-pyrimidin-2-amine (5k)] | 28.1 µM |
| Cn1c2ccccc2c2cc(-c3cc(-c4ccccn4)nc(N)n3)ccc21 [4-(9-Methyl-9H-carbazol-3-yl)-6-(pyridin-2-yl)-pyrimidin-2-amine (5o)] | > 100 µM |
| Cn1c2ccccc2c2cc(-c3cc(-c4cccs4)nc(N)n3)ccc21 [4-(9-Methyl-9H-carbazol-3-yl)-6-(thiophen-2-yl)-pyrimidin-2-amine (5n)] | > 100 µM |
| Cn1c2ccccc2c2cc(-c3cc(-c4ccc(Cl)c(Cl)c4)nc(N)n3)ccc21 [4-(3,4-Dichlorophenyl)-6-(9-methyl-9H-carbazol-3-yl)-pyrimidin-2-amine (5j)] | 23.2 µM |
| Cn1c2ccccc2c2cc(-c3cc(-c4ccc([N+](=O)[O-])cc4)nc(N)n3)ccc21 [4-(9-Methyl-9H-carbazol-3-yl)-6-(4-nitrophenyl)-pyrimidin-2-amine (5m)] | 87.2 µM |
| COc1cc(OC)c(-c2cc(-c3ccc4c(c3)c3ccccc3n4C)nc(N)n2)c(OC)c1 [4-(9-Methyl-9H-carbazol-3-yl)-6-(2,4,6-trimethoxyphenyl)-pyrimidin-2-amine (5d)] | 73.7 µM |
| Cn1c2ccccc2c2cc(-c3cc(-c4ccc(F)cc4)nc(N)n3)ccc21 [4-(4-Fluorophenyl)-6-(9-methyl-9H-carbazol-3-yl)-pyrimidin-2-amine (5e)] | > 100 µM |
| COc1ccc(-c2cc(-c3ccc4c(c3)c3ccccc3n4C)nc(N)n2)cc1OC [4-(3,4-Dimethoxyphenyl)-6-(9-methyl-9H-carbazol-3-yl)-pyrimidin-2-amine (5c)] | 30.7 µM |
